Assay results from publication PMC8148055 (Acta Pharmaceutica Sinica. B, 2020).

Molecular target: sirtuin 6 (SIRT6) (Homo sapiens, UniProt Q8N6T7)
Experiment: Fluor de Lys deacetylation assay
Format: biochemical

Sequence of sirtuin 6 (SIRT6) (Q8N6T7 2-355): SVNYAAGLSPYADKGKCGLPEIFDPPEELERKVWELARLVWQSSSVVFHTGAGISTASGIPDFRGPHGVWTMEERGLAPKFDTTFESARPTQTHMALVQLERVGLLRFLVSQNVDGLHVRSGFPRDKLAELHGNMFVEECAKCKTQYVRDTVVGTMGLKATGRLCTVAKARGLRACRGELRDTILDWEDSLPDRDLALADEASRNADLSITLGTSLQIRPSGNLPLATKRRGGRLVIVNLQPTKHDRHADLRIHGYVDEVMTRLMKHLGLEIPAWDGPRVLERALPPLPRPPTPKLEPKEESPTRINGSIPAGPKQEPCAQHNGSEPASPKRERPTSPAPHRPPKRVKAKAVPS

Question: Which “Fluor de Lys deacetylation assay (about 4-fold activation)” value does the source give for MDL-801-E1 here?
Answer: The value was ~ 4 fold.
